From a melting point compilation (Tetko et al.; mined from patent text by program, amines drawn as free bases though some values may be those of a salt)

Structure (SMILES)	melting point [°C]
O=C1CN2CCC1(Cc1ccccc1)CC2	111
CC(C)[C@H](CCC(=O)OCc1ccccc1)NC(=O)OC(C)(C)C	94 to 96
Cc1oc(-c2cccs2)nc1COc1ccc(CON=C(CCCCC(=O)O)c2ccccc2)cc1	101 to 102
Cc1[nH]c(C(=O)NCCc2ccccn2)c(C)c1-c1nc2ccc(Oc3ccccc3)cc2[nH]1	290 to 293
CCn1nc(C(F)(F)F)c(CS(=O)(=O)C2=NOC(C)(CCl)C2)c1S(C)(=O)=O (stereo not given)	113 to 114
COc1cc(N)c(Cl)cc1C(=O)OCC12CCCN(CC1)C2 (stereo not given)	131 to 133
FC(F)C(F)(F)Sc1nc(-c2ccccc2)c(-c2cccnc2)[nH]1	153 to 154
CCOC(=O)C=Cc1ccc(OCc2ccccc2)c(OC)c1	74.5 to 75
COC(=O)c1cc2ccsc2s1	101 to 105
Nc1cc2c(Nc3ccc(F)c(Cl)c3)ncnc2cc1OCC1CCCO1 (stereo not given)	162 to 164
CC(=CCO)CS(=O)(=O)c1ccccc1	55 to 56.5
O=c1ccccn1C1=CC(CF)(CF)Oc2ccc(C(F)(F)F)cc21	139 to 140
CC1(C)COC(=O)N1c1nc(-c2ccccc2)cs1	94 to 97
Cn1nc(-c2c(F)cccc2Cl)nc1-c1sc(Br)c(Cl)c1Cl	178 to 180
CC(C)(C)C(=O)C(C(Cl)C(Cl)(Cl)Cl)n1cncn1 (stereo not given)	111 to 113
CCCCCCCCCCCCCC/C=C\CNC(=O)OC(C)(C)C	42 to 46
CCOC(=O)c1cccc2nc(CC)n(Cc3ccc(-c4ccccc4-c4nnn[nH]4)cc3)c12	188 to 189
c1ccc(-c2nn3c(c2-c2nc4ncccc4o2)CCC3)nc1	182 to 184
CC(C)(C)OC(=O)CN1C(=O)[C@@H](N)[C@H](c2ccccc2)Sc2ccccc21 (relative stereo)	172 to 174
O=c1c2cc(Br)ccc2ncn1Cc1cccnc1	162 to 164
CN(C)Cc1ccc(SC2CCN(C(=O)OCc3ccccc3)CC2)cc1	144
COCCOC(=O)N=NC(=O)OCCOC	39.9 to 40.4
CSc1ccc(CCCC(=O)O)cc1	53 to 55

Structure (SMILES)	melting point [°C]
CCCCCCCCCCCCCCCCCCOC(=O)ON1C(=O)c2ccccc2C1=O	83 to 89
CCCCC(=CC(N)C(=O)O)CP(=O)(O)O (stereo not given)	186 to 187
Cn1cccc1C1=C(Cl)C(=O)c2cccnc2C1=O	168 to 169
Cc1cncc2cccc(S(=O)(=O)Cl)c12	113 to 118
CCOC(=O)n1c(SC(F)(F)C(F)F)nc(-c2ccc(F)cc2)c1-c1ccc(F)cc1	137 to 139
O=C(O)c1cccc(-c2cccc3c2OC(Cc2cccc(C(F)(F)F)c2)C3)c1 (stereo not given)	156 to 157
Clc1cccc2c1C1=NCCN1C1C(c3ccccc3)CCN21 (stereo not given)	249 to 250
CNC(=N[N+](=O)[O-])N(Cc1cnc(Cl)s1)C(C)=O	105 to 106
O=C1CCc2cc(-c3cccs3)ccc21	148
N#CC(C(=O)Nc1ccc(Cl)cc1)C(=O)c1ccc[nH]1 (stereo not given)	219 to 221
CON(Cc1nc2c(N)nc3cc(OCc4ccccc4)ccc3c2n1CC1CCOCC1)S(C)(=O)=O	195 to 197
CCNC(=O)c1ccc(N2CCN(Cc3cc(C)c4c(c3)NC(=O)C(C)O4)CC2)c(F)c1 (stereo not given)	242 to 245
Cc1c(NC(=O)CC(C)(C)C)cc2c(c1C)OC(C)(C)C2O (stereo not given)	184 to 185
CN(C)CCCNc1nc2cc(Cl)c(Cl)cc2nc1-c1ccccn1	59 to 61
Cc1[nH]cnc1CSCCNc1ncc(Cc2ccccc2)cc1C#N	105 to 106
Cc1cc2c(cc1C(=O)c1ccccc1Cl)OC(C(=O)O)O2 (stereo not given)	133 to 135
COc1ccc2c(OCCN3CCOCC3)c(-c3ccccc3)c(=O)oc2c1	95 to 96
CC(C)(C)OC(=O)NC(CO)c1ccc(F)cc1 (stereo not given)	85 to 86
CC(C)(C)C1CC(CCC(=O)O)(CCC(=O)O)C(=O)C(CCC(=O)O)(CCC(=O)O)C1	209 to 212
CC(CN1CCCC1)N1c2ccccc2Sc2ccc(C(=O)NCC3CCCC3)cc21 (racemic)	124
O=C(Nc1ccc2nc3[nH]c(=O)[nH]c3cc2c1)c1ccccc1	> 300
Cc1c[nH]c(-c2ccnc(NC(=O)c3ccccc3)c2)n1	133 to 135
CCc1ncnc(NC(CO)CO)c1Cl	104 to 105

Structure (SMILES)	melting point [°C]
CN([C@H]1CC[C@H](Nc2nccc(-n3nnc4ccccc43)n2)CC1)S(C)(=O)=O	250 to 252
Cc1cccc(C(=O)NC(Nc2c(Nc3cccnc3)c(=O)c2=O)C(C)(C)Cc2ccncc2)c1 (stereo not given)	219 to 221
CC(=O)N=C(CCSCc1csc(NC(=N)N)n1)NC(C)=O	180 to 181
Cn1nnnc1-c1cc(-c2ccc(F)cc2)sc1-c1ccc(F)cc1	175 to 176
CC(C)(CO)c1cc(C#N)ccc1O	129 to 130
Cc1ccc(NC(=N)Nc2ncccc2OCc2c(F)cccc2Cl)cc1	136 to 138
CC(C)(CN)Cc1ccc(-c2ccc(CC(C)(C)CN)cc2)cc1	97 to 99
C=CCOC(=O)Nc1cc(-c2cccc(Cl)c2)sc1C(C)(C)O	60 to 61
COc1ccc(C2(O)C=CNC(=O)N2)cc1OC1CC2CCC1C2 (stereo not given)	167 to 169
CCn1c(=O)c2c(O)cc(=O)oc2c2ccc(Cl)cc21	276 to 278
CCOC(=O)NNC(=O)Nc1c(F)c(F)c(F)c(F)c1F	180 to 182
CCCCCCCCCCCC(=O)CO	52 to 54
CCOC(=O)c1[nH]c2cccc3c2c1CCC3O (stereo not given)	166 to 170
CCCCCc1cc2c(=O)oc(C(=O)OCC)nc2s1	69.6 to 70.5
c1ccc(Sc2ccc3[nH]ccc3c2)cc1	97 to 99
CC(=O)NCCc1nc(-c2csc(N=C(N)N)n2)cs1	226 to 227
CCOCc1nc2cnc3ccc(OCc4ccccc4)cc3c2n1CC(C)(C)O	138 to 140
CCC(O)(C(N)=O)c1cc(C(F)(F)F)cc(C(F)(F)F)c1 (stereo not given)	128 to 129
CCCc1nc2c(N)nc3cc(-c4cncc(CO)c4)ccc3c2n1CC(C)(C)O	225 to 226
CCN1CC(CCCl)N(C)c2ccccc2C1=O (stereo not given)	75 to 79
COc1ccc(C(O)COc2ccc(C(=O)O)c(O)c2)cc1C(C)(C)C (stereo not given)	149 to 150
O=C(Oc1ccc(Cl)c(Cl)c1)c1cc2c(cn1)[nH]c1ccccc12	260 to 261
CCCCCCC(C(=O)O)n1cc(CC)c2cc(-c3ccccc3-c3nn[nH]n3)ccc21 (stereo not given)	110 to 113

Now from value to compound:

melting point [°C]	Structure (SMILES)
158 to 160	CNC(=O)[C@H](C)C[C@H](O)[C@H](CC1CCCCC1)NC(=O)[C@H](Cc1cscn1)NC(=O)OC(C)(C)C
90	COC(=O)CCCc1cc2nc(Cl)ccc2n1S(=O)(=O)c1cccc(OC)c1
237 to 242	CCCOc1ccc2c(c1)C(c1ccc(OC)cc1OCC(=O)O)C(CN)C2c1ccc2c(c1)OCO2 (stereo not given)
88 to 90	CSc1[nH]nc(-c2ccc(Cl)cc2F)c1C
165 to 166	COc1cc(S(C)=O)c(C)cc1O (stereo not given)
80 to 85	CCCCc1nn2cccc(C(=O)OC)c2c1Cc1ccc(Br)cc1
329	COc1cc2nc(-c3ccc(Cl)cc3)nc(O)c2cc1OC
207 to 209	CC(C)(C)CC(=O)c1c(-c2ccc3cc(OCC(=O)O)ccc3c2)oc2ccccc12
111 to 113	CCNC(=O)c1c(Cl)cccc1[Si](C)(C)C1CCCCC1
54 to 55	CCCCCCn1c2ccccc2c2ccc(CO)cc21
86 to 88	CCOP(=O)(CCOc1ccc(C(=O)O)cc1)OCC
112 to 118	CCN(CCCCc1coc2c(OC)cccc12)C1COc2c(F)ccc(C(N)=O)c2C1 (stereo not given)
164 to 165	CCC(=O)C(CCCCCCCCc1ccc(O)cc1)C(=O)CC
94 to 95	OCCc1noc(Cc2ccc(-c3ccccc3)cc2)n1
130 to 132	Cn1c(-c2ccc(OCC(O)CNC(C)(C)C)cc2)cc2ccccc2c1=O (stereo not given)
168 to 170	NC(=O)c1cccc(-c2nc3sccn3c2-c2ccnc(N[C@@H]3CCCN(S(=O)(=O)c4ccc(Cl)cc4)C3)n2)c1
79 to 81	CC#CC(C)(C)NC(=O)C(Br)CC (stereo not given)
187 to 189	O=C1C(Cc2ccccc2)NC(=S)N1c1nc(C(F)(F)F)cs1 (stereo not given)

melting point [°C]	Structure (SMILES)
193 to 196	CC(C)(C)OC(=O)N1CCC(C(c2cc(F)ccc2F)S(=O)(=O)c2ccc(Cl)cc2)CC1 (stereo not given)
121 to 123	COc1ccc2c(c1)C(=O)C(Cc1c[nH]c3ccccc13)CO2 (stereo not given)
92	CCCCC(CC)CNCCOc1ccc2ccccc2c1 (stereo not given)
252 to 253	COc1cc(COc2nn(-c3ccccc3)cc2/C=C2\SC(=O)NC2=O)ccc1OCc1nc(-c2ccco2)oc1C
175 to 177	COc1cccc(-c2cc3c(n2-c2ccc(O)c(C(=O)O)c2)CCCC3)c1
72 to 74	COCCOc1ccc(C=O)c2cc3ccccc3cc12
193 to 196	COc1ccc2c(c1)CN(c1ccc3c(ccn3C)c1)C2
145 to 149	CC(COc1ccc(O)c(C(N)=O)c1)N(Cc1ccccc1)CC(O)COc1ccc(OCC(N)=O)cc1 (stereo not given)
107 to 108	O=C(Cc1ccc(Cl)cc1)OC(c1ccccc1)c1ccccc1
206	CCOC(=O)COc1ccc(NC(=O)c2csc(NC(=N)N)n2)cc1
> 268	N#Cc1cccc(-c2cnc3cnc(-c4ccc(O)cc4)nc3c2)c1
40 to 42	N#CC(c1ccccc1Cl)N1CCOCC1 (stereo not given)
185 to 193	O=[N+]([O-])c1cc(-c2ccc(Cl)cc2)[nH]c1SC(F)(F)F
190 to 191	COc1cc(OC)nc(Oc2cccc3c2C(=O)OC3C)n1 (stereo not given)
178	COC(=O)c1c(C)ccc(C(O)=S)c1C
178 to 180	Cc1cccc(Cl)c1N(C)S(=O)(=O)c1nc2scc(C)n2n1
141 to 143	COCCc1nc2c(N)nc3c(c2n1CCOCCNC(=O)c1ccccc1)CCCC3
128 to 131	COc1ccc(CN2C(=O)C3CCCC3=Nc3ccccc32)cc1 (stereo not given)
